In patent US20240226130A1, “4'-THIONUCLEOSIDE ANALOGUES AND THEIR PHARMACEUTICAL USE” (Gilead Sciences, Inc., priority 2022, published 2024):
Like-named read-outs stand apart in the source and are kept apart here. Values belong to the compound of their own block, whether it stands above or below them.

Key:
[1] = Cytotoxicity assay in MT-4 cells; type: cell-based; conditions: human, uninfected MT-4 cells, read-out: MT4 CC50
Protocol: Example 10: Cytotoxicity Assay in MT-4 Cells
Assays were performed as described in Example 9 except uninfected MT-4 cells were added to each well containing test compound. In addition, 10 μM puromycin was added to the last column of each assay plate to assess a base level of cytotoxicity.

HIV-1 (IIIB) = assay: Antiviral (HIV) assay in MT-4 cells; type: cell-based; conditions: read-out: MT4 HIV EC50
Protocol: Example 9: Antiviral (HIV) Assay in MT-4 Cells
Compounds were tested in a high-throughput 384-well assay format for their ability to inhibit the replication of HIV-1 (IIIB) in MT-4 cells. Compounds were serially diluted (1:3) in DMSO on 384-well polypropylene plates and further diluted 200-fold into complete RPMI media (10% FBS, 1% P/S) using the Biotek Micro Flow and Labcyte ECHO acoustic dispenser. Each plate contained up to 8 test compounds, with negative (no drug) and positive (5 μM AZT) controls. MT-4 cells were pre-treated with 10 μL of either RPMI (mock-infected) or a fresh 1:250 dilution of HIV-1 IIIB concentrated virus stock. Infected and uninfected MT-4 cells were further diluted in complete RPMI media and added to each plate using a Micro Flow dispenser. After 5 days incubation in a humidified and temperature-controlled incubator (37° C.), Cell Titer Glo (Promega) was added to the assay plates and chemiluminescence read using an Envision plate-reader. EC50 values were defined as the compound concentration that causes a 50% decrease in luminescence signal and were calculated using a sigmoidal dose-response model to generate curve fits and are shown in Table 1.

[2] = Rhesus pharmacokinetic study, oral compound 7 (plasma and PBMC); conditions: for Intracellular concentration in PBMC: LOQ 0.16 μM compound 7, 0.04 μM triphosphate
Protocol: The oral dose was administered via oral gavage, and after dose administration the dose apparatus was flushed with approximately 10 mL water before removal from the animal. Food was returned 4 hours after dosing. […] The K2EDTA tubes were kept chilled at approximately 5° C. until centrifugation (4° C., 5 minutes, 2000×g) to collect plasma. Centrifugation began within 1 hour of collection. Plasma samples were harvested, placed in micronic tubes, and maintained on dry ice prior to storage at −70° C. until analysis by LC-MS/MS. […] The sodium citrate tubes were then gently inverted 3-4 times and stored upright at ambient temperature until centrifugation to collect PBMCs. Centrifugation began as soon as possible following collection, within 6 hours after collection. The PBMCs were separated by centrifugation (30 minutes at 1500×g-1800×g, 18-20° C.), washed once with ice cold 0.9% NaCl and treated with red blood cell lysis buffer (3.5 g ammonium chloride and 0.036 g ammonium carbonate in 500 mL ultrapure water, prepared before first blood collection) for 10 minutes at ambient temperature. Subsequently, the cells were washed twice with ice cold 0.9% NaCl and the cell pellet maintained at −70° C. until analysis by LC-MS/MS.

[3] = Rhesus pharmacokinetic study, intravenous compound 7 (plasma and PBMC); conditions: for Intracellular concentration in PBMC: LOQ 2.5 μM compound 7, 0.63 μM triphosphate
Protocol: Male Indian Origin Rhesus Monkeys were used for the pharmacokinetic studies. Studies were conducted under a protocol approved by IACUC. […] The intravenous dose was administered as an approximately 30-minute infusion, and after dose administration the dose apparatus was flushed with approximately 1 mL saline before removal from the animal. Food was returned 4 hours after dosing. […] The K2EDTA tubes were kept chilled at approximately 5° C. until centrifugation (4° C., 5 minutes, 2000×g) to collect plasma. Centrifugation began within 1 hour of collection. Plasma samples were harvested, placed in micronic tubes, and maintained on dry ice prior to storage at −70° C. until analysis by LC-MS/MS. […] The sodium citrate tubes were then gently inverted 3-4 times and stored upright at ambient temperature until centrifugation to collect PBMCs. Centrifugation began as soon as possible following collection, within 6 hours after collection. The PBMCs were separated by centrifugation (30 minutes at 1500×g-1800×g, 18-20° C.), washed once with ice cold 0.9% NaCl and treated with red blood cell lysis buffer (3.5 g ammonium chloride and 0.036 g ammonium carbonate in 500 mL ultrapure water, prepared before first blood collection) for 10 minutes at ambient temperature. Subsequently the cells were washed twice with ice cold 0.9% NaCl, the cell pellet resuspended in ice cold RIPA buffer (fortified with Pierce protease ad phosphatase inhibitor tablet), snap frozen in liquid nitrogen, and maintained at −70° C. until analysis by LC-MS/MS.

[4] = Human immunodeficiency virus 1, MT4, 120 h, HIV-1 IIIB in MT-4 cells, 5 days, Cell Titer Glo
[5] = Human immunodeficiency virus 1, IIIB, MT4, 120 h
[6] = male, Indian Origin, rhesus monkey, peripheral blood mononuclear cells (PBMC), po, 7.5 mg/kg
[7] = male, Indian Origin, rhesus monkey, plasma, po, 7.5 mg/kg
[8] = male, Indian Origin, rhesus monkey, plasma, iv, 1 mg/kg

- EC50 (HIV-1 (IIIB); [4]): 0.683 µM
SMILES: C#C[C@]1(CO)S[C@@H](n2cnc3c(N)nc(N)nc32)C[C@@H]1O [Compound 1, (2R,3S,5R)-5-(2,6-Diamino-9H-purin-9-yl)-2-ethynyl-2-(hydroxymethyl)tetrahydrothiophen-3-ol]
- CC50 at 5 days [1]: > 25 µM

- EC50 (HIV-1 (IIIB); [4]): 4.52 µM
SMILES: C#C[C@]1(CO)S[C@@H](n2cnc3c(NC4CC4)nc(N)nc32)C[C@@H]1O [Compound 2, (2R,3S,5R)-5-(2-Amino-6-(cyclopropylamino)-9H-purin-9-yl)-2-ethynyl-2-(hydroxymethyl)tetrahydrothiophen-3-ol]
- CC50 at 5 days [1]: > 25 µM

- EC50 (HIV-1 (IIIB); [4]): > 25 µM
SMILES: C#C[C@]1(CO)S[C@@H](n2cnc3nc(N)nc(NC4CC4)c32)C[C@@H]1O [Compound 3, (2R,3S,5R)-5-(2-Amino-6-(cyclopropylamino)-7H-purin-7-yl)-2-ethynyl-2-(hydroxymethyl)tetrahydrothiophen-3-ol]
- CC50 at 5 days [1]: > 25 µM

- EC50 (HIV-1 (IIIB); [4]): 0.477 µM
SMILES: C#C[C@]1(CO)S[C@@H](n2cnc3c(OCC)nc(N)nc32)C[C@@H]1O [Compound 4, (2R,3S,5R)-5-(2-Amino-6-ethoxy-9H-purin-9-yl)-2-ethynyl-2-(hydroxymethyl)tetrahydrothiophen-3-ol]
- CC50 at 5 days [1]: 23 µM

- EC50 (HIV-1 (IIIB); [4]): > 5 µM
SMILES: C#C[C@]1(CO)S[C@@H](n2cnc3nc(N)nc(OCC)c32)C[C@@H]1O [Compound 5, (2R,3S,5R)-5-(2-Amino-6-ethoxy-7H-purin-7-yl)-2-ethynyl-2-(hydroxymethyl)tetrahydrothiophen-3-ol]
- CC50 at 5 days [1]: > 25 µM

SMILES: C#C[C@]1(CO[P@@](=O)(N[C@@H](C)C(=O)OCC(CC)CC)Oc2ccccc2)S[C@@H](n2cnc3c(N)nc(N)nc32)C[C@@H]1O [Compound 6, 2-Ethylbutyl ((S)-(((2R,3S,5R)-5-(2,6-diamino-9H-purin-9-yl)-2-ethynyl-3-hydroxytetrahydrothiophen-2-yl)methoxy)(phenoxy)phosphoryl)-L-alaninate]
- CC50 at 5 days [1]: > 25 µM
- EC50 (HIV-1 (IIIB); [5]): 0.026 µM

SMILES: C#C[C@]1(CO)S[C@@H](n2cc(F)c(N)nc2=O)C[C@@H]1O [Compound 7, 4-Amino-1-((2R,4S,5R)-5-ethynyl-4-hydroxy-5-(hydroxymethyl)tetrahydrothiophen-2-yl)-5-fluoropyrimidin-2(1H)-one]
- CC50 at 5 days [1]: 24 µM
- EC50 (HIV-1 (IIIB); [4]): 0.018 µM
- Intracellular concentration in PBMC ([2]; 48 hr after oral 7.5 mg/kg compound 7): BLQ
- Intracellular concentration in PBMC ([2]; 72 hr after oral 7.5 mg/kg compound 7): BLQ
- Intracellular concentration in PBMC ([2]; 120 hr after oral 7.5 mg/kg compound 7): BLQ
- Intracellular concentration in PBMC ([2]; 168 hr after oral 7.5 mg/kg compound 7): BLQ
- half-life ([2]; male, Indian Origin, rhesus monkey, in vivo, po, 7.5 mg/kg): 25.1 ± 16.3 h
- concentration at 12 h [2, 6]: 560 ± 30 nM
- concentration at 24 h [2, 6]: 370 ± 200 nM
- AUC(0-t) [2, 7]: 20.1 ± 14.9 µM·h
- Cmax [2, 7]: 1500 ± 350 nM
- Intracellular concentration in PBMC ([3]; 12 hr after intravenous 1 mg/kg compound 7): BLQ
- Intracellular concentration in PBMC ([3]; 24 hr after intravenous 1 mg/kg compound 7): BLQ
- Intracellular concentration in PBMC ([3]; 48 hr after intravenous 1 mg/kg compound 7): BLQ
- Intracellular concentration in PBMC ([3]; 72 hr after intravenous 1 mg/kg compound 7): BLQ
- Intracellular concentration in PBMC ([3]; 144 hr after intravenous 1 mg/kg compound 7): BLQ
- Intracellular concentration in PBMC ([3]; 168 hr after intravenous 1 mg/kg compound 7): BLQ
- half-life ([3]; male, Indian Origin, rhesus monkey, in vivo, iv, 1 mg/kg): 50 ± 26.4 h
- AUC(0-t) [3, 8]: 14.6 ± 3.01 µM·h
- Cmax [3, 8]: 3770 ± 310 nM

SMILES: C#C[C@]1(CO[P@@](=O)(N[C@@H](C)C(=O)OCC(CC)CC)Oc2ccccc2)S[C@@H](n2cc(F)c(N)nc2=O)C[C@@H]1O [Compound 9, 2-Ethylbutyl ((S)-(((2R,3S,5R)-5-(4-amino-5-fluoro-2-oxopyrimidin-1(2H)-yl)-2-ethynyl-3-hydroxytetrahydrothiophen-2-yl)methoxy)(phenoxy)phosphoryl)-L-alaninate]
- CC50 at 5 days [1]: 23.2 µM
- EC50 (HIV-1 (IIIB); [5]): 0.145 µM
